According to patent US11447486B2, “2-amino-benzimidazole derivatives and their use as 5-lipoxygenase and/or prostaglandin E synthase inhibitors” (INSTITUT PASTEUR KOREA, priority 2014, dated 2022):

Assays:
[1] = test system: Rat basophilic leukemia (RBL) cells; test: LTB4 secretion assay in RBL (rat basophilic leukemia cells); type: cell-based; details: Rattus norvegicus, RBL
In short: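 LTB4 released into supernatant was measured by EIA after 10 min at 37 °C with arachidonic acid (2.5 uM final) and calcium ionophore A23187 (5 uM final). Before stimulation, cells plated 2×10^4/well overnight received compound doses (5 nM to 100 uM) for 15 min in 0.5% FBS medium.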

human 5-LOX = biological target: T1, human 5-LOX (Homo sapiens, UniProt P09917); test: 5-LOX enzyme activity, fluorescence method (5-HPETE, H2DCFDA); type: biochemical; details: read-out: 5-LO (IC50)
T1 construct: purchased Cayman 60402; host or cells: insect cells (lysate)
T1 sequence (P09917 1-674): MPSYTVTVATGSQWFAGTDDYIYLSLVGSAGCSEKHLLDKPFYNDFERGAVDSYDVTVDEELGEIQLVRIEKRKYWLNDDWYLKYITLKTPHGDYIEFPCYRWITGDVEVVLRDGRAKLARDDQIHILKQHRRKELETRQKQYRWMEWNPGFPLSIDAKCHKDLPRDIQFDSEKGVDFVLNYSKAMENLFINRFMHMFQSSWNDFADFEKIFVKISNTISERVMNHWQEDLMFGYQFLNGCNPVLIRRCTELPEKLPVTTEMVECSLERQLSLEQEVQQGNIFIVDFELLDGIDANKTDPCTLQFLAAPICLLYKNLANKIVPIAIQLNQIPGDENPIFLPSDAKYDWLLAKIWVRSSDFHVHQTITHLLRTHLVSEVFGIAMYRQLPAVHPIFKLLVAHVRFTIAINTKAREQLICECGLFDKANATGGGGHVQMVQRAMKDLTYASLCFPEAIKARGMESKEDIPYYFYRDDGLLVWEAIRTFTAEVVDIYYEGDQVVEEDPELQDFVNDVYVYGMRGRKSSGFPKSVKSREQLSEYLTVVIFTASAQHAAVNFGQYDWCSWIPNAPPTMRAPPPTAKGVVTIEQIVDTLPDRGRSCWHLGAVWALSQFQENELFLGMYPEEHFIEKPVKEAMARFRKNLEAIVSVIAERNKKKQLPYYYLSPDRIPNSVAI
In short: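 Fluorescence-based read-out, run entirely at room temperature. Enzyme mixture was exposed to a dose range of compound from 0.5 nM to 10 uM for 5 min before ATP and arachidonic acid were added to final levels of 100 uM and 3 uM.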

Structure (SMILES) | EC50 [1] [µM] | IC50 (human 5-LOX) [nM]
Cn1c(NCc2ccc(Oc3ncc(Cl)cn3)cc2)nc2ccc(NC3CSC3)cc21 [Compound 366] | < 10 | < 1000
N#CCCNc1nc2ccc(N)cc2n1Cc1ccc(Oc2ccc(Cl)cc2)cc1 [Compound 252] | < 10 | < 1000
Cn1c(NCc2ccc(Oc3ccc(Cl)cn3)nc2)nc2ccc(N)cc21 [Compound 308] | > 20 | < 1000
Cn1c(NCc2ccc(Oc3ncc(Cl)c(C4CC4)n3)cc2)nc2ccc(N)cc21 [Compound 397] | < 10 | < 1000
Cn1c(NCc2ccc(Oc3ccc4cc(Cl)ccc4n3)cc2)nc2ccc(N)cc21 [Compound 389] | < 10 | < 1000
CN(C)c1nc2ccc(NCc3ccc(N(Cc4ncco4)c4ccc(F)cc4)cc3)cc2[nH]1 [Compound 213] | < 10 | < 1000
Cn1c(NCc2ccc(Oc3cnc4cc(Cl)ccc4n3)cc2)nc2ccc(NC3COC3)cc21 [Compound 427] | < 10 | < 1000
Cn1ccnc1C(=O)c1ccc(CNc2nc3ccc(N)cc3[nH]2)cc1 [Compound 173] | > 20 | < 1000
Cn1c(NCc2ccc(Oc3ncc4cccc(Cl)c4n3)cc2)nc2ccc(NC3COC3)cc21 [Compound 437] | < 10 | < 1000
Cn1c(NCc2ccc(Oc3ccc(Cl)cn3)cc2)nc2ccc(NCCO)cc21 [Compound 313] | < 10 | < 1000
Nc1ccc2nc(NCc3ccc(C(=O)c4ccccn4)cc3)[nH]c2c1 [Compound 141] | > 20 | < 1000
Cn1c(NCc2ccc(Oc3nc4ccc(Cl)cc4n3C)cc2)nc2ccc(N)cc21 [Compound 428] | < 10 | < 1000
CCC(Nc1nc2ccc(Nc3cc(C(F)(F)F)n(C)n3)cc2n1C)c1ccc(Oc2cnc(C(F)(F)F)cn2)cc1 (stereo not drawn) [Compound 522] | < 10 | > 10000
Cn1c(NCc2ccc(Oc3nc4ccccc4n3C)cc2)nc2ccc(N)cc21 [Compound 356] | 10 to 20 | < 1000
Nc1cnc2c(c1)nc(N1CCCC1)n2CCOc1ccc(OC(F)(F)F)cc1 [Compound 72] | > 20 | > 10000
CCn1c(NCc2ccc(Oc3ncc(C(F)(F)F)cn3)cc2)nc2ccc(Nc3cc(C(F)(F)F)n(C)n3)cc21 [Compound 521] | < 10 | 1000 to 10000
Cn1ccnc1CNc1ccc2nc(NCc3ccc(Oc4ncc(Cl)cn4)cc3)n(C)c2c1 [Compound 359] | < 10 | < 1000
Nc1ccc2nc(NCc3ccc4cc(Cl)ccc4n3)[nH]c2c1 [Compound 156] | 10 to 20 | < 1000
Cn1c(NCN2CC(Cc3ccccc3)OC2=O)nc2ccc(N)cc21 (stereo not drawn) [Compound 174] | > 20 | 1000 to 10000
CN(C)c1nc2ccc(NCc3ccc(N(CC(N)=O)c4ccc(F)cc4)cc3)cc2[nH]1 [Compound 212] | < 10 | < 1000

Structure (SMILES) | EC50 [1] [µM] | IC50 (human 5-LOX) [nM]
Cn1nccc1-c1ccc(CNc2nc3cc(N)ccc3[nH]2)cc1 [Compound 200] | < 10 | < 1000
CN(C)CCn1c(NCc2ccc(Oc3ccc(Cl)cn3)cc2)nc2ccc(N)cc21 [Compound 286] | < 10 | < 1000
Cn1c(NCc2ccc(Oc3ccnc4cc(Cl)ccc34)cc2)nc2ccc(N)cc21 [Compound 375] | < 10 | < 1000
Nc1ccc2nc(NCc3ccc4c(c3)NCCC4)[nH]c2c1 [Compound 162] | < 10 | < 1000
Nc1cc(Cl)c2nc(N3CCCC3)n(CCOc3ccc(OC(F)(F)F)cc3)c2c1 [Compound 89] | > 20 | < 1000
Cn1c(NCc2ccc(Oc3ncc(C(F)(F)F)cn3)cc2)nc2c(F)cc(NC3COC3)cc21 [Compound 551] | < 10 | < 1000
CC(Cc1ccc(Cl)cc1Cl)Nc1nc2ccc(N)cc2n1Cc1ccccc1 (stereo not drawn) [Compound 140] | < 10 | < 1000
CCn1c(NCc2ccc(Oc3ccc(Cl)cn3)cc2)nc2ccc(N)cc21 [Compound 265] | < 10 | < 1000
Cn1c(NCc2ccc(Oc3ccc4cccc(Cl)c4n3)cc2)nc2ccc(N)cc21 [Compound 421] | < 10 | < 1000
Cn1c(NCc2ccc(Oc3ncc(N)cn3)cc2)nc2ccc(N)cc21 [Compound 376] | > 20 | < 1000
Cn1c(NCCOc2ccc(Cl)c(Cl)c2)nc2cc(N)ccc21 [Compound 61] | 10 to 20 | < 1000
Nc1ccc2nc(-n3cc(F)cn3)n(CCOc3ccc(OC(F)(F)F)cc3)c2c1 [Compound 78] | 10 to 20 | > 10000
Nc1cnc2nc(N3CCCC3)n(CCOc3ccc(OC(F)(F)F)cc3)c2c1 [Compound 83] | > 20 | 1000 to 10000
Clc1ccc(OC(CNc2nc3ccc(NC4COC4)cc3[nH]2)c2ccccc2)cc1 (stereo not drawn) [Compound 180] | < 10 | < 1000
CCn1c(NCc2ccc(Oc3ccc(Cl)cn3)cc2)nc2ccc(Nc3cc(C(F)(F)F)n(C)n3)cc21 [Compound 511] | < 10 | > 10000
COC(=O)c1ccc(OC2CCN(c3ccc4[nH]c(N(C)C)nc4c3)C2)cc1 (stereo not drawn) [Compound 194] | < 10 | < 1000
CN(C)c1nc2cc(NCc3coc(Nc4ccc(Cl)cc4)n3)ccc2[nH]1 [Compound 214] | < 10 | < 1000
Cn1c(NCc2ccc(Oc3ncc(Cl)cc3Cl)cc2)nc2ccc(NC3COC3)cc21 [Compound 322] | < 10 | > 10000
Cn1c(N(CCO)Cc2ccc(Oc3ccc(Cl)cn3)cc2)nc2ccc(N)cc21 [Compound 317] | > 20 | < 1000
Nc1nc2ccc(N3CC(F)(F)C3)cc2n1Cc1ccc(Oc2ccc(Cl)cn2)cc1 [Compound 235] | < 10 | > 10000

Structure (SMILES) | EC50 [1] [µM] | IC50 (human 5-LOX) [nM]
Nc1ccc2nc(NCc3ccc4cccnc4c3)[nH]c2c1 [Compound 159] | > 20 | < 1000
Cn1c(NCc2ccc(Oc3ccc(C(F)(F)F)nc3)cc2)nc2ccc(N)cc21 [Compound 223] | < 10 | < 1000
Cn1c(NCc2ccc(Oc3nccc(C(F)(F)F)n3)cc2)nc2ccc(N)cc21 [Compound 363] | > 20 | < 1000
CC(C)(CO)Nc1nc2ccc(N)cc2n1Cc1ccc(Oc2ccc(Cl)cc2)cc1 [Compound 187] | < 10 | < 1000
Cn1c(NCc2ccc(Oc3ncc4c(Cl)cccc4n3)cc2)nc2ccc(N)cc21 [Compound 434] | < 10 | < 1000
CN1CCN(CCNc2ccc3nc(NCc4ccc(Oc5ccc(Cl)cn5)cc4)n(C)c3c2)CC1 [Compound 333] | < 10 | < 1000
Cc1cc(Oc2ncc(Cl)cn2)cc(C)c1CNc1nc2ccc(N)cc2n1C [Compound 385] | 10 to 20 | < 1000
COCCNc1ccc2nc(NCc3ccc(Oc4ccc(Cl)cn4)cc3)n(C)c2c1 [Compound 316] | < 10 | < 1000
Nc1ccc2nc(N3CCC(F)(F)C3)n(CCOc3ccc(OC(F)(F)F)cc3)c2c1 [Compound 100] | < 10 | < 1000
Cn1c(NCc2ccc(Oc3ccnc4c(Cl)cccc34)cc2)nc2ccc(N)cc21 [Compound 387] | < 10 | < 1000
CCOC(=O)CNc1nc2ccc(N)cc2n1Cc1ccc(Oc2ccc(Cl)cc2)cc1 [Compound 207] | < 10 | < 1000
COC(c1ccc(CNc2nc3ccc(NC4COC4)cc3[nH]2)cc1)c1ccccn1 (stereo not drawn) [Compound 189] | > 20 | < 1000
CC(C)(C)Nc1nc2cc(N)ccc2n1CC(=O)Nc1ccc(OC(F)(F)F)cc1 [Compound 69] | < 10 | 1000 to 10000
Cn1c(N2CCC(C(=O)Nc3ccc(OC(F)(F)F)cc3)C2)nc2ncc(N)cc21 (stereo not drawn) [Compound 76] | > 20 | < 1000
CN(C)c1nc2ccc(NC3COC3)cc2n1CCOc1ccc(Cl)cc1 [Compound 40] | 10 to 20 | < 1000
Nc1ccc2[nH]c(NC(=O)c3ccc(F)cc3)nc2c1 [Compound 26] | > 20 | 1000 to 10000
COc1cc2[nH]c(NCc3ccc(Oc4ccc(Cl)cc4)cc3)nc2cc1N [Compound 146] | 10 to 20 | < 1000
Cn1c(NCc2ccc(Oc3ccc(OC(F)(F)F)cn3)cc2)nc2ccc(N)cc21 [Compound 377] | < 10 | < 1000
CN(C)c1nc2ccc(N)cc2n1CCOc1ccc(Cl)cc1 [Compound 39] | 10 to 20 | < 1000
COC(=O)c1ccc(CNc2ccc3nc(N(C)C)[nH]c3c2)cc1 [Compound 179] | < 10 | < 1000
